Structures can show the parent of a compound that is named as a salt.
Columns and labels:
humanem Faktor Xa = target: T1, humanem Faktor Xa (Homo sapiens, UniProt P00742); assay: Inhibition constant Ki, chromogenic substrate Chromozym X, photometric at 405 nm; format: biochemical; settings: pH 7.5, 25°C, 0.1 M phosphate buffer, 0.2 M NaCl; read-out: Ki (fXa)
T1 construct: humanem Faktor Xa; purchased Boehringer Mannheim GmbH
Experimental: (§1) Die kinetischen Messungen wurden in 0.2 M Kochsalz und 0.5 % Polyethylenglycol 6000 enthaltendem 0.1 M Phosphatpuffer (Herstellung siehe unten) bei pH 7.5 und 25°C in Polystyrol-Halbmikroküvetten in einem Gesamtvolumen von 1 ml durchgeführt . Die Reaktionen wurden durch Zugabe von Enzym zu vorinkubierten Lösungen, die entweder Dimethylsulfoxid (Kontrolle) oder Lösungen der Testsubstanz in DMSO (Inhibitor-Stocklösungen: 10 mM in DMSO) enthielten, gestartet. Die Zunahme der Extinktion bei 405 nm als Folge der Freisetzung von 4-Nitroanilin aus dem Substrat wurde photometrisch über einen Zeitraum von 12 Minuten verfolgt. Im Abstand von 20 Sekunden wurden Meßwerte (Extinktion vs. Zeit) ermittelt und diese Daten per Computer gespeichert.
(§2) Zur Bestimmung der Inhibitionskonstanten Ki wurde wie folgt vorgegangen: Die Geschwindigkeiten V0 (Extinktionsänderung pro Sekunde; Messungen ohne Inhibitor) und Vi (Extinktionsänderung pro Sekunde; Messungen mit Inhibitor) wurden durch lineare Regression bestimmt, wobei nur die Meßpunkte berücksichtigt wurden, bei der sich die Substratkonzentration um weniger als 15% verringerte. Aus einer Meßreihe (konstante Inhibitorkonzentration, variable Substratkonzentrationen) bestimmte man KM und VMAX durch nichtlinearen Fit auf die Gleichung V =(Vmax *[S])/([S]+KM) [formula] […]

Humanes α-Thrombin = target: T2, Humanes α-Thrombin (Homo sapiens, UniProt P00734); assay: Inhibition constant Ki, chromogenic substrate S-2238, photometric at 405 nm; format: biochemical; settings: pH 7.5, 25°C, 0.1 M phosphate buffer, 0.2 M NaCl
T2 construct: Humanes α-Thrombin; purchased Sigma
Experimental: as §1, §2

[1] = target: T3, bovines pankreatisches Trypsin (Bos taurus, UniProt P00760); assay: as above; format: biochemical, bovin; settings: pH 7.5, 25°C, 0.1 M phosphate buffer, 0.2 M NaCl
T3 construct: bovines pankreatisches Trypsin (Sigma); purchased Sigma; host or cells: bovine pancreas
T3 sequence (P00760 24-246): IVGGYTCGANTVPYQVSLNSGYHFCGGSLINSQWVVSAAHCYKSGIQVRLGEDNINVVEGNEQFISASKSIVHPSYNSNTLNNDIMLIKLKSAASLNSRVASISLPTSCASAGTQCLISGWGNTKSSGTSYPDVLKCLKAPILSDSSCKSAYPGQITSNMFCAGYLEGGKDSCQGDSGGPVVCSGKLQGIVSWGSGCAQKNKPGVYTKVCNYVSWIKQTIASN
Experimental: as §1, §2

Citratplasma = assay: Activated partial thromboplastin time (APTT) in citrated plasma, ball coagulometer; format: biochemical; settings: time as difference to control (control ca. 28-35 s)
Experimental: (§3) Neun Teile frisches Blut gesunder Spender werden mit einem Teil Natriumcitratlösung (0.11 Mol/l) gemischt und bei ca. 3000 U/min 10 Minuten bei Raumtemperatur zentrifügiert. Das Plasma wird abpipettiert und kann bei Raumtemperatur ca. 8 h aufbewahrt werden.
100 µl Citratplasma und 100 µl APTT-Reagenz (Diagnostica Stago / Boehringer Mannheim GmbH; enthält Lyophilisat Cephalin mit mikrokristallinem Kieselguraktivator) werden zusammen mit 10 µl Dimethylsulfoxid (DMSO) oder 10 µl einer Lösung der Wirksubstanz in DMSO in einem Kugelkoagulometer (KC10 der Fa. Amelung) 3 Minuten bei 37°C inkubiert. Mit Zugabe von 100 µl 0.025 M Calciumchlorid-Lösung wird eine Stoppuhr gestartet und der Zeitpunkt bis zum Eintritt der Gerinnung bestimmt. Die APTT beträgt bei den Kontrollmessungen ca. 28 -35 Sekunden und wird durch Wirksubstanzen verlängert. Sofern bei den Messungen nach 5 Minuten keine Gerinnung eintrat, wurde der Versuch gestoppt (>300).
In Tabelle 1 sind die gemessenen APTT-Zeiten in Sekunden als Differenz zur Kontrolle angegeben. Die Konzentrationen der Wirksubstanzen betrugen im Endvolumen 1000 µM (APTT 1000), 100 µM (APTT 100), 10 µM (APTT 10), 1 µM (APTT 1).

Pferdethrombin = assay: Thrombin time in citrated plasma with thrombin reagent, ball coagulometer; format: biochemical, Pferd; settings: 500 µM final concentration; time as difference to control (control ca. 24 s)
Experimental: as §3
200 µl Citratplasma werden in einem Kugelkoagulometer (KC10 der Fa. Amelung) 2 Minuten bei 37°C inkubiert. Zu 190 µl vortemperiertem Thrombin-Reagenz (Boehringer Mannheim GmbH; enthält ca. 3 U/ml Pferdethrombin und 0.0125 M Ca^++ gibt man 10 µl Dimethylsulfoxid (DMSO) oder eine Lösung der Wirksubstanz in DMSO. Mit Zugabe dieser 200 µl Lösung zum Plasma wird eine Stoppuhr gestartet und der Zeitpunkt bis zum Eintritt der Gerinnung bestimmt. Die Thrombinzeit beträgt bei den Kontrollmessungen ca. 24 Sekunden und wird durch Wirksubstanzen verlängert. Sofern bei den Messungen nach 5 Minuten keine Gerinnung eintrat, wurde der Versuch gestoppt (>300).
In Tabelle 1 sind die gemessenen Thrombinzeiten in Sekunden als Differenz zur Kontrolle angegeben. Die Konzentrationen der Wirksubstanzen betrugen im Endvolumen 500 µM (TT 500).

T1 sequence (P00742 235-488 limits assumed): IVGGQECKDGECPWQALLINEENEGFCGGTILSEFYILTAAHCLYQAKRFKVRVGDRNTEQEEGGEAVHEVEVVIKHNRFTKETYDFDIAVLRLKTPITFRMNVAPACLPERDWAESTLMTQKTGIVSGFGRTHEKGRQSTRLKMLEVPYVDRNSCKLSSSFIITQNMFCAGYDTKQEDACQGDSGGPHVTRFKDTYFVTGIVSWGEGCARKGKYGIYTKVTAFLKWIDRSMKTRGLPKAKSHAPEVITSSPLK
T1 sequence (P00742 41-179 partner limits assumed): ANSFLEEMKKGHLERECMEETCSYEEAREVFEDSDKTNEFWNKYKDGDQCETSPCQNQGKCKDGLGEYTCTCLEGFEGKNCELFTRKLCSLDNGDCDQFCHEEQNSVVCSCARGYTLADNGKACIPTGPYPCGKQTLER

N=C(N)N1CCC(Oc2ccc(S(=O)(=O)Nc3ccc4c(c3)CN(C(=N)N)CC4)cc2)CC1 [Beispiel 1, 7-[4-(1-Carbamimidoyl-piperidin-4-yloxy)-benzolsulfonylamino]-3,4-dihydro-1H-isochinolin-2-carboxamidin-dihydrochlorid]
Ki (humanem Faktor Xa): 0.01 µM | Ki (Humanes α-Thrombin): 2 µM | Ki [1]: 0.1 µM | APTT 1 (Citratplasma; 1 µM final concentration): 12 Sekunden | APTT 10 (Citratplasma; 10 µM final concentration): 50 Sekunden | APTT 100 (Citratplasma; 100 µM final concentration): 140 Sekunden | APTT 1000 (Citratplasma; 1000 µM final concentration, test stopped after 5 min (>300)): > 300 Sekunden | TT 500 (Pferdethrombin): 40 Sekunden

Source: patent publication EP0937723A1, “Novel sulfonamides, process for their preparation and medicaments containing them” (Roche Diagnostics GmbH, priority 1998, dated 1999)
